# Laboratory results published in US20250115595A1, “INHIBITORS OF HYPOXIA-INDUCIBLE FACTORS” (The Johns Hopkins University, priority 2021, published 2025).
# Columns and labels:
# HIF-1α and HIF-2α = experiment: Immunoblot of HIF-1α and HIF-2α accumulation in hypoxic MIO-M1 cells; format: cell-based, human; conditions: as little as 1 μM, 4 hours
# Method: (§1) It has previously been reported that the cells in the inner nuclear layer of the retina that express VEGF in response to hypoxia/ischemia are Müller glial cells (X. Xin et al., Proc Natl Acad Sci USA 110, E3425-3434 (2013)). […] The effects of 32-134D on HIF-1α accumulation persisted up to 16 hours after treatment of cultured cells (FIG. 27B).
# (§2) Cells culture and reagents: MIO-M1 cells were a gift from Dr. Astrid Limb (University College London, Institute of Ophthalmology, London, United Kingdom). MIO-M1 and HUVEC cells were cultured in DMEM with 10% (vol/vol) FBS (Quality Biological) and 1% penicillin/streptomycin (Cellgro). Hypoxia chambers were used to expose cells. Evans Blue (E2129) was purchased from Sigma-Aldrich.
# Immunoblot assays and ELISAs: Cell, neurosensory retina, and D120 retinal organoid lysates were subjected to 4-15% gradient SDS/PAGE (Invitrogen). Immunoblot assays were performed as previously described (X. Xin et al., 2013, Proc Natl Acad Sci USA 110, E3425-3434).
# C57BL/6 mice = experiment: Laser CNV model, intraperitoneal dosing; format: in vivo, mouse
# Method: The laser CNV model for neovascular (wet) age-related macular degeneration was used to assess the efficacy of 32-134D in blocking HIF-regulated gene expression in the eye (FIG. 20A). C57BL/6 mice were treated with laser on day 0. Beginning on day 2, mice were treated with 5 daily intraperitoneal (IP) injections (day 2 to day 6) with 32-134D at 40 mg/kg or with vehicle control. On day 7, choroidal flat mounts were prepared and stained with isolectin-B4 to examine the CNV lesions. The expression of Vegf (FIG. 20B) and Angpt14 (FIG. 20C) mRNA was also measured at day 7 following laser treatment.
# C57BL/6 mice were treated with laser on day 0. Beginning on day 2, mice were treated with 5 daily IP injections (day 2 to day 6) with 32-134D at 40 mg/kg or with vehicle control. On day 7, mice were euthanized and choroidal flat mounts were stained with isolectin-B4 to examine the area of CNV lesions.
# HIF target genes = experiment: RT-qPCR of HIF target gene expression in Hep3B cells; format: cell-based, human
# Method: Based on hit compound 11-88, a number of analogs were prepared in which either halogen substitutions to the indole groups were altered or the central thiazole was replaced by imidazole, isoxazole, oxadiazole, oxazole, pyrazinone, pyridazine, pyrazine, pyrazole, pyridine, thiadiazole, triazine, or triazole. […] The bis-bromoindole thiazole 32-134D and the bis-indole thiadiazole 33-063 (FIGS. 1B and 1C) were further characterized with respect to endogenous HIF target gene expression in Hep3B cells. […] For comparison, we tested the effect of PT2385, which inhibited EPO, NDRG1, ANGPTL4, and VEGFA expression but had no effect on CA9, which is consistent with its HIF-2-selective mechanism of action (Wallace E M et al., Cancer Res. 2016; 76(18):5491-5500). None of the compounds had any effect on RPL13A expression, which is neither hypoxia-induced nor HIF-regulated (FIG. 3).
# Human Hep3B and mouse Hepa1-6 cells were purchased from ATCC and grown in high-glucose (4.5 mg/ml) Dulbecco's modified Eagle's medium supplemented with 10% (vol/vol) fetal bovine serum and […] at 37° C. in a 5% CO2/95% air incubator (20% O2). Human cell line identity was authenticated by analysis of short tandem repeats, and all cell lines were maintained mycoplasma free, using PCR-based assays conducted at the Johns Hopkins University Genetic Resources Core Facility. Cells were subjected to hypoxia in a controlled atmosphere chamber (PLAS Labs) with ambient gas mixture containing 1% O2 and 5% CO2.
# RNA was extracted using TRIzol Reagent (ThermoFisher). Quantitative Real-time PCR was conducted using SYBR Green PCR Master Mix (BioRad) and reactions were run using the BioRad thermal cycler (BioRad). The mRNA expression of target genes was normalized to the expression of 18S rRNA and the fold change (FC) was calculated based on the threshold cycle (Ct) as
# FC=2^−Δ(ΔCt) where ΔCt=Cttarget gene−Ct18S rRNA and Δ(ΔCt)=ΔCttreatment−ΔCtcontrol.
# HIF-1α = molecular target: T1, HIF-1α (Homo sapiens, UniProt Q16665); experiment: Immunoblot of HIF-1α accumulation in hypoxic MIO-M1 cells; format: cell-based
# T1 construct: endogenous in cells; host or cells: MIO-M1 (immortalized human Müller glial cell line), hypoxia
# T1 sequence (Q16665 whole entry): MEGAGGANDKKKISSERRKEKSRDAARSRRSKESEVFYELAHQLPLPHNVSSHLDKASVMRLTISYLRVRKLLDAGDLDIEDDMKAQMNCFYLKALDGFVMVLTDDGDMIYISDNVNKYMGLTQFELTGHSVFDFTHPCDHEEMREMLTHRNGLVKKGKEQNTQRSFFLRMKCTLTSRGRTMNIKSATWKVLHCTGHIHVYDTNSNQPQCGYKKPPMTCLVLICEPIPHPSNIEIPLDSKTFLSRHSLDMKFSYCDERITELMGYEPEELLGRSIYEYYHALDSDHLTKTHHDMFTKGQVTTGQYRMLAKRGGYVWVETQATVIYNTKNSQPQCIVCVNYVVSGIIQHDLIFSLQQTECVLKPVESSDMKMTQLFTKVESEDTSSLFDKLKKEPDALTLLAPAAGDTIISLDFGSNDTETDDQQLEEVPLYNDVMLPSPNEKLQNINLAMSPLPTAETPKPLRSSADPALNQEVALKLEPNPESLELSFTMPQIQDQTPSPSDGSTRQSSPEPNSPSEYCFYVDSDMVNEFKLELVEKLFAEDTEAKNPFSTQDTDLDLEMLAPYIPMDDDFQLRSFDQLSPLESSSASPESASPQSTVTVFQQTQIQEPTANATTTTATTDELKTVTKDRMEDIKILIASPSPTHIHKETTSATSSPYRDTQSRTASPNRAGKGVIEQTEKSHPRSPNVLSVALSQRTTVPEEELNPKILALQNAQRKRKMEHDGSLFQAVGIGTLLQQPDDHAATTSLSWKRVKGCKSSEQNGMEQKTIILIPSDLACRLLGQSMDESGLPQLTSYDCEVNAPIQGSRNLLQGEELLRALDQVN
# Method: as §1
# Pharmacokinetic analysis of 32-134D in the neurosensory retina following intraocular administration was determined by liquid chromatography and tandem mass spectrometry (LC-MS/MS) to quantify the concentration of 32-134D in retinal tissue over 14 days following a single 70-ng intraocular injection of 32-134D (see Methods of all parameters). […] The total exposure (area under the curve or AUClast) was 72.3 nmol*day/g.
# as §2
# Immunoblot assays and ELISAs: Cell, neurosensory retina, and D120 retinal organoid lysates were subjected to 4-15% gradient SDS/PAGE (Invitrogen). […]
smiles,measurement,setting,value
"Brc1ccc2c(-c3csc(-c4c[nH]c5c(Br)cccc45)n3)c[nH]c2c1 [Compound 32-134D, 4-(6-bromo-1H-indol-3-yl)-2-(7-bromo-1H-indol-3-yl)thiazole]",HIF-1α and HIF-2α protein accumulation in response to hypoxia,HIF-1α and HIF-2α,decreased
same,Vegf mRNA in eyes,"C57BL/6 mice; 40 mg/kg IP, day 7 after laser",significantly decreased
same,CNV lesions,"C57BL/6 mice; 5 daily IP injections 40 mg/kg, day 7",marked decrease in CNV
same,Angpt14 mRNA expression in eyes,"C57BL/6 mice; 20 or 40 mg/kg IP, day 7 after laser",significantly decreased
same,"hypoxia-induced expression of HIF target genes CA9, ANGPTL4, VEGFA, NDRG1 and EPO",HIF target genes,inhibited
same,persistence of effect on HIF-1α accumulation after treatment,HIF-1α; 10 μM,up to 16 hours
same,IC50,"HIF-1α; hypoxia 4 hours, quantitation of immunoblots, read-out: IC50 of HIF-1α protein accumulation",3.5 µM
